# Experiments:
# [1] = test system: GST27; assay: GST27 induction, metcamifen pre-treatment of isolated embryos; format: cell-based, maize; conditions: for GST27 before doubling, Mean: embryo pre-treatment 10 mg/L in MS media; for GST27 Mean: embryo pre-treatment in MS media
# Experimental: (§1) For the examples below, GST27 was used as a quick indicator for treatment effectiveness.
# (§2) Embryos from maize ears were isolated and treated with metcamifen prior to a colchicine doubling treatment. Isolated embryos plated on filter paper were pre-treated with a formulation of metcamifen at concentrations of 0, 10, 100, and 1000 mg/L in Murashige and Skoog Medium (MS media) for a duration of 1, 3, 5, or 7 days at 6° C. with 150 PAR light. GST27 induction was measured after pre-treatment at each time point and again at the end of the colchicine treatment. Resulting embryos were germinated, and the percentage of embryos successfully transferred to soil (percent potted rate) was measured as an indicator of plant health and pre-treatment effectiveness. GST27 was induced by metcamifen at a medium level ([…] of TSP), but higher than ear pre-treatment that was less than 10 ng/ml of TSP.
# The addition of 10% DMSO in the metcamifen formulation at 10, 100, and 1000 mg/L in the MS media was tested to potentially increase the uptake of metcamifen. This test was done at temperatures of both 6° C. and 20° C. over a course of 0 to 4 days. There was no increase in GST27 expression with the 10% DMSO addition at either temperature.
# (§3) Embryo pre-treatment with metcamifen at 10 mg/L was tested at temperatures of 6° C. and 20° C. for 1 day to measure the impact of temperature on embryo health.
# [2] = test system: doubled haploid embryos; assay: Potting rate and root growth, metcamifen post-treatment during germination; format: in vivo, maize; conditions: for Potting Rate Mean: post-treatment in germination media (2.5 g/L Gelzan)
# Experimental: (§4) As used herein, the term “potted rate” or “potting rate” refers to the percent of germinated embryos successfully transferred to soil from total treated haploid embryos. The “potted rate” is used as an indication of plant health in monitoring the success of recovery and growth after treatment of haploids. As used herein, the term “transplant rate” refers to the survival of healthy plants after embryos were germinated and transferred to soil.
# Doubled haploid embryos were treated with metcamifen during germination. Metcamifen was tested in the germination media at 0, 5, and 10 mg/L after colchicine treatment completion for 24 or 48 hours. The germination media comprised Gelzan at a concentration of 3.5 g/L. Four genotypes were tested representing two heterotic groups. […] The percent potting rate was not increased as result of these post-treatments. […] This led to a looping of the roots. A reduction in Gelzan concentration from 3.5 g/L to 2.5 g/L was tested (comparison data not presented here). The experiments were then carried out with 2.5 g/L Gelzan for metcamifen post-treatments while the control (0 metcamifen) contained 3.5 g/L Gelzan. Metcamifen was tested as 0, 5, 10 and 20 mg/L after colchicine treatment completion for 24 and 48 hours. The reduction in Gelzan of the metcamifen post-treatments led to a higher percent potting rate (see Table 5).
# [3] = test system: isolated embryos; assay: Potted rate after metcamifen co-treatment during colchicine doubling; format: in vivo, maize; conditions: for Potted Rate Mean: co-treatment with colchicine
# Experimental: as §4
# (§5) Isolated embryos were treated with metcamifen during colchicine doubling (also referred to as co-treatment). Metcamifen was added in the colchicine co-treatment media (a.k.a. doubling media) as a formulation at concentrations of 0, 200, 400, 800, 1200 mg/L. Metcamifen concentrations tested for a 24-hour duration ranged from 0-1000 mg/L. Metcamifen concentrations tested for a 48-hour condition ranged from 0-1200 mg/L. Three to four genotypes representing two heterotic groups were tested.
# (§6) Initial testing on three genotypes included co-treatment of metcamifen and colchicine in Gelzan media at 28° C. with 150 PAR light at concentrations of 0, 200, and 1000 mg/L to identify a range of working concentrations. The 200 and 1000 mg/L concentrations induced similar GST27 expression levels for both the 24- and 48-hour durations. The resulting induction was higher (400 ng/mg TSP GST27) than recorded with pre-treatments of ears or isolated embryos. […] Metcamifen co-treatment of isolated embryos optimization continued by testing levels of 0, 400, 600, and 800 mg/L for 24 and 48 hours with 4 genotypes across 2 heterotic groups. GST induction (ng/mg TSP) was measured after metcamifen co-treatment. […] The percent potted rate after metcamifen co-treatment was similar for both time durations when sorted by genotype or heterotic group.
# [4] = test system: embryos from maize ears; assay: Potted rate after metcamifen pre-treatment of isolated embryos; format: in vivo
# Excerpt: as §4, §2, §3
# [5] = test system: GST27; assay: GST27 induction, metcamifen co-treatment of isolated embryos during colchicine doubling; format: cell-based, maize; conditions: for GST27 Induction Mean: co-treatment with colchicine
# Experimental: as §1, §5, §6
# [6] = initial testing, 200 and 1000 mg/L, 24-hour co-treatment
smiles,measurement,setting,value
"CNC(=O)Nc1ccc(S(=O)(=O)NC(=O)c2ccccc2OC)cc1 [Metcamifen, metcamifen]",GST27 induction in comparison to the control and other doses,"[1]; 10 mg/L, all time points, 6° C. and 20° C., DMSO test",best GST27 induction
same,GST27 expression with 10% DMSO addition,"[1]; 10, 100, 1000 mg/L in MS media, 6° C. and 20° C., 0 to 4 days",no increase
same,"GST27 before doubling, Mean","[1]; 1 day, 6° C.",8.83 ng/mg TSP
same,"GST27 before doubling, Mean","[1]; 1 day, 20° C.",140 ng/mg TSP
same,GST27 Mean,"[1]; 10 mg/L, 1 day, 6° C.",9 ng/mg TSP
same,GST27 Mean,"[1]; 10 mg/L, 3 days, 6° C.",14 ng/mg TSP
same,GST27 Mean,"[1]; 10 mg/L, 5 days, 6° C.",37 ng/mg TSP
same,GST27 Mean,"[1]; 10 mg/L, 7 days, 6° C.",75 ng/mg TSP
same,GST27 Mean,"[1]; 100 mg/L, 1 day, 6° C.",21 ng/mg TSP
same,GST27 Mean,"[1]; 100 mg/L, 3 days, 6° C.",30 ng/mg TSP
same,GST27 Mean,"[1]; 100 mg/L, 5 days, 6° C.",61 ng/mg TSP
same,GST27 Mean,"[1]; 100 mg/L, 7 days, 6° C.",92 ng/mg TSP
same,GST27 Mean,"[1]; 1000 mg/L, 1 day, 6° C.",11 ng/mg TSP
same,GST27 Mean,"[1]; 1000 mg/L, 3 days, 6° C.",71 ng/mg TSP
same,GST27 Mean,"[1]; 1000 mg/L, 5 days, 6° C.",60 ng/mg TSP
same,GST27 Mean,"[1]; 1000 mg/L, 7 days, 6° C.",108 ng/mg TSP
same,GST27 induced by metcamifen (medium level),"[1]; embryo pre-treatment, 10-1000 mg/L, 1-7 days, 6° C.",< 100 ng/ml of TSP
same,percent potting rate,"[2]; post-treatment 5 and 10 mg/L, 3.5 g/L Gelzan, 24 or 48 hours",not increased
same,Potting Rate Mean,"[2]; 5 mg/L, Duration 24 hours",69%
same,Potting Rate Mean,"[2]; 5 mg/L, Duration 48 hours",18%
same,Potting Rate Mean,"[2]; 10 mg/L, Duration 24 hours",62%
same,Potting Rate Mean,"[2]; 10 mg/L, Duration 48 hours",24%
same,Potting Rate Mean,"[2]; 20 mg/L, Duration 24 hours",51%
same,Potting Rate Mean,"[2]; 20 mg/L, Duration 48 hours",23%
same,Potted Rate Mean,"[3]; 200 mg/L, 24 hours",84%
same,Potted Rate Mean,"[3]; 400 mg/L, 24 hours",84%
same,Potted Rate Mean,"[3]; 400 mg/L, 48 hours",14%
same,Potted Rate Mean,"[3]; 800 mg/L, 24 hours",92%
same,Potted Rate Mean,"[3]; 800 mg/L, 48 hours",73%
same,Potted Rate Mean,"[3]; 1200 mg/L, 48 hours",71%
same,percent potted rate versus 1000 mg/L and control,"[3]; initial testing, 200 mg/L, 48-hour co-treatment",increased the percent potted rate
same,doubled haploid ears produced versus the control,[3]; [6],increase in the doubled haploid ears produced
same,percent potted rate versus the control,[3]; [6],increased the percent potted rate
same,Potted Rate Mean,"[4]; embryo pre-treatment 10 mg/L in MS media, 1 day, 6° C. (Table 3 experiment)",62%
same,Potted Rate Mean,"[4]; embryo pre-treatment 10 mg/L in MS media, 1 day, 6° C. (Table 3 experiment), listed as metcamifen",significantly higher potting rate than the control
same,Potted Rate Mean,"[4]; embryo pre-treatment 10 mg/L in MS media, 1 day, 20° C.",23%
same,Potted Rate Mean,"[4]; embryo pre-treatment 10 mg/L in MS media, 1 day, 20° C., listed as metcamifen",2%
same,Potted Rate Mean,"[4]; embryo pre-treatment in MS media, 10 mg/L, 1 day, 6° C.",46%
same,Potted Rate Mean,"[4]; embryo pre-treatment in MS media, 10 mg/L, 3 days, 6° C.",38%
same,Potted Rate Mean,"[4]; embryo pre-treatment in MS media, 10 mg/L, 5 days, 6° C.",4%
same,Potted Rate Mean,"[4]; embryo pre-treatment in MS media, 10 mg/L, 7 days, 6° C.",27%
same,Potted Rate Mean,"[4]; embryo pre-treatment in MS media, 100 mg/L, 1 day, 6° C.",12%
same,Potted Rate Mean,"[4]; embryo pre-treatment in MS media, 100 mg/L, 3 days, 6° C.",12%
same,Potted Rate Mean,"[4]; embryo pre-treatment in MS media, 100 mg/L, 5 days, 6° C.",16%
same,Potted Rate Mean,"[4]; embryo pre-treatment in MS media, 100 mg/L, 7 days, 6° C.",24%
same,Potted Rate Mean,"[4]; embryo pre-treatment in MS media, 1000 mg/L, 1 day, 6° C.",10%
same,Potted Rate Mean,"[4]; embryo pre-treatment in MS media, 1000 mg/L, 3 days, 6° C.",16%
same,Potted Rate Mean,"[4]; embryo pre-treatment in MS media, 1000 mg/L, 5 days, 6° C.",17%
same,Potted Rate Mean,"[4]; embryo pre-treatment in MS media, 1000 mg/L, 7 days, 6° C.",17%
same,"GST27 induction among 0, 400, 600, 800 mg/L","[5]; 800 mg/L, 48-hour co-treatment, 4 genotypes",highest induction
same,GST27 Induction Mean,"[5]; 200 mg/L, 24 hours",383.25 ng/mg TSP
same,GST27 Induction Mean,"[5]; 400 mg/L, 24 hours",396.13 ng/mg TSP
same,GST27 Induction Mean,"[5]; 400 mg/L, 48 hours",609.50 ng/mg TSP
same,GST27 Induction Mean,"[5]; 800 mg/L, 24 hours",489.38 ng/mg TSP
same,GST27 Induction Mean,"[5]; 800 mg/L, 48 hours",666.50 ng/mg TSP
same,GST27 Induction Mean,"[5]; 1200 mg/L, 48 hours",796.63 ng/mg TSP
same,GST27 induction,"[5]; initial testing, 200 and 1000 mg/L, 24- and 48-hour, Gelzan media, 28° C., three genotypes",400 ng/mg TSP

# — patent publication US20260248087A1, “GENERATING DOUBLED HAPLOID PLANTS” (Syngenta Crop Protection AG, priority 2023, published 2026)
